Type in all cases: cell-based, mouse
One assay has as its system CHIR-expanded EBs. Kind of assay: Differentiation of CHIR-expanded EBs on Matrigel (IHC, RT-qPCR at day 10). As for the experimental part:
Embryoid body (EB) differentiation: To induce differentiation, EBs were dissociated into smaller clumps by a 5-7-minute treatment with cold 0.25% Trypsin (Gibco), followed by trituration. Trypsin was neutralized with 1:1 addition of Trypsin inhibitor (Sigma-Aldrich) and cells were pelleted by centrifugation at 1000RPM. Cell pellets were resuspended in N2/B27 medium (without growth factors) and plated onto a Matrigel precoated plate. In our experience, the single cell suspension of 100-150 EBs provided enough cells to seed one 24-well plate. […] At the end of 10 days, multiple neural processes can be visualized by phase contrast microscopy and cultures were either fixed with 4% PFA for immunohistochemistry or lysed to extract RNA in RLT buffer (Qiagen). […] CHIR withdrawal), or DAPT, a pro-differentiation agent (Crawford and Roelink, 2007) (FIG. 7J). […] This strategy was successful at restoring almost all dI identities in cultures taken from EBs both at the earliest passage and at the latest passage assessed (passage 7;
(Real-time PCR tracks product formation cycle by cycle.)

In assay [1] the test system is mESCs-derived NMPs / NPCs. Nature of the assay: Bulk RNA-Seq differential expression and qRT-PCR after RA or RA+BMP4 treatment. How it is done:
Bulk-RNA sequencing and data processing: Total cell lysate was obtained in buffer RLT (Qiagen) at different time points from three independent differentiations (biological replicates) conducted parallelly. RNA extraction was performed using RNeasy mini kit (Qiagen) and the quality was determined using Agilent Technologies 2100 Bioanalyzer and only samples with a RIN score >8.0 were sequenced. Stranded libraries were constructed using Universal plus mRNA sequencing kit (NuGEN) and sequenced onto 2 lanes of NovaseqS1 to generate 30 million reads/sample. Obtained reads were aligned to the latest mouse reference genome (mm10) using the STAR spliced read aligner. Pearson correlation and principal component analysis (PCA) was performed to determine the similarities among the samples and replicates. Differentially expressed genes were identified using DESeq and EdgeR package on R platform. The candidate genes were selected using cutoff false discovery rate (FDR <0.05) and log fold change (>2). Differentially expressed gene lists were further subjected to Enrichr, Metascape (Zhou et al., 2019) and DAVID functional annotation tools to identify enriched gene ontology (GO) categories.
Quantitative (a) RT-PCR analysis: RNA was isolated with RNeasy Mini Kit (Qiagen, cat no. 74104), and converted to cDNA using Superscript IV First Strand Synthesis kit (Thermo Fisher Scientific). qRT-PCR was performed using SYBR Green PCR Master Mix (Applied Biosystems) on Roche 480 Lightcycler (Roche). The relative fold expression was calculated using 2-AACt method of comparing the expression of the target gene with that of the housekeeping gene glyceraldehyde 3-phosphate dehydrogenase (Gapdh). All experiments were repeated at least 2-3 times (technical replicates) from at least two independent differentiations (biological replicates), and data is represented as mean±SEM.
We took advantage of the directed differentiation protocols to investigate the unresolved mechanisms by which RA and BMP direct dI fate specification. To further validate the use of a stem cell model, we first assessed the genetic basis of the fate decisions mediated by RA signaling. During the 24 hr pulse of RA at day 3, Pax3 levels gradually increase, while T expression concomitantly declines (FIG. 12A). […] To identify the transcriptional changes occurring during this first commitment step, we performed bulk RNA-Seq at day 3 (NMP state), day 3.25 (early transcriptional response to RA) and day 4 (dP state1) (FIG. 11B).
We hypothesized that the addition of BMP4 to NPCs in dP state1, directs them to a more dorsal dP state, i.e. dP state2 (FIG. 11A). To define the transcriptional changes occurring after BMP4 addition, we performed bulk RNA-Seq at day 4 (dP state1), day 4.25 (early transcriptional response to RA+BMP4) and at day 5 (dP state2) (FIG. 4A). […] 78 genes, out of 411, were common between both time points (FIGS. 4B, 13B). Focusing on these common genes, we identified enriched functional processes using GO analyses. The GO terms included the BMP signaling pathway (FIG. 4C, Table 3), confirming that the analysis identified BMP responsive genes.

A further assay concerns mESC-derived NPCs. Kind of assay: Expansion culture: serial passaging of RA±BMP4 patterned EBs in CHIR or DMSO. How it is done:
For expansion cultures. EBs were dissociated in single cell suspension at day 6 by treating with 0.25% Trypsin, followed by trituration to break up the larger cell clumps. Cells were pelleted and passaged in N2/B27 medium containing either DMSO or 5 μM CHIR at 1:3 dilution. Media was changed at every third day during the expansion culture.
Finally, we assessed whether the mitogenic properties of Wnt signaling can be leveraged to expand the pool of mESC-derived NPCs. RA±BMP4 patterned EBs were serially passaged at 1:3 dilution […] in the presence of DMSO (control) or CHIR (FIG. 7A).
Embryonic stem cells are first directed to a day 4 neural precursor cell (NPC) state, and then Wnt signaling is continually switched on using CHIR, which starts the process of proliferation. The cells are then passaged every 6 days. with a 1:3 split. Control NPCs die almost immediately, while “expanded” cells keep dividing for as long as they have been passaged to date (three months). These NPCs can then be differentiated. Differentiation of the expanded cultures without any further signals yields dI3s and dI5s. A further pulse for two days with RA (day 3-5), produces dI4, dI5 and dI6. Pulsing them with RA+BMP4, yields dI1, dI2 and dW3.
Thus, a method of keeping dorsal progenitors (dPs) in a proliferative state for many passages (perhaps indefinitely) is provided. The proliferative state can be maintained without changing the fate potential of the dPs. mESCs are first patterned according to either the RA or RA+BMP4 protocol, up to day 6. After patterning, the dPs are then reintroduced to medium containing CHIR (Wnt agonist, that stimulates Wnt signaling). The CHIR-treated cultures can then serially expand 3-fold every 6 days (a passage), unlike control (DMSO-treated) cells, which start dying at passage 2 (FIG. 7). To date we have expanded dPs for 7-8 passages, i.e. a couple of months.

The mark [2] stands for this setting: 6 hrs of RA treatment (day 3.25) vs day 3 NMP state.
[3] abbreviates: 24 hours of RA exposure (day 4) vs day 3.

For `CC1=C(/C=C/C(C)=C/C=C/C(C)=C/C(=O)O)C(C)(C)CCC1` [RA, retinoic acid], the “increase in the number of dI4/dI6s (Pax2+) compared to control” value in the assay with CHIR-expanded EBs (pulse between day 3 and 5 during differentiation of expanded EBs) is given as ~ 6 fold. In assay [1] (setting [2]), this compound registered a genes significantly downregulated of 19 genes and a genes significantly upregulated of 138 genes. In assay [1] (setting [3]), the genes significantly downregulated was found to be 590 genes and the genes significantly upregulated was 389 genes. Besides, in assay [1] (24 hr treatment of 100 nM RA), the “genes upregulated compared to day 4 control (no RA treatment)” value turned out to be 911 genes. Also, in assay [1] (day 3, day 3.25, day 4 of RA treatment), the “genes whose expression levels are altered in total” value stood at 979 genes.

With `Cc1c[nH]c(-c2cnc(NCCNc3ccc(C#N)cn3)nc2-c2ccc(Cl)cc2Cl)n1` [CHIR, CHIR99021], the “identity of cultures kept in CHIR by day 10” value with CHIR-expanded EBs (passage 6 or 7 EBs dissociated onto Matrigel) is “continued to be solely Sox2^+”. In addition, the “effect of CHIR removal on differentiation” value with CHIR-expanded EBs (passage 6 or 7 EBs, day 10) was “removal of CHIR triggers spontaneous neural differentiation”. Besides, in the assay on mESC-derived NPCs (CHIR vs DMSO, RA and RA+BMP4 patterned EBs), the “EB size over three consecutive passages” value was “decrease in EB size”. In the assay on mESC-derived NPCs (CHIR-treated EBs), the “Sox2+ NPC identity after passaging” value is given as “remained Sox2^+ after multiple passages”. The “serial expansion of CHIR-treated cultures every 6 days (a passage)” value in the assay on mESC-derived NPCs (Example 2) worked out at 3 fold. For the same compound, the “increase in the number of EBs after each passage compared to DMSO-treated EBs” value with mESC-derived NPCs (RA- and RA+BMP4-treated EBs) is reported as above 6 fold. For the same compound, the “increase in the number of CHIR-treated EBs by the third passage” value in the assay with mESC-derived NPCs (passaged 1:3 every 7 days) is reported as 3- to 6 fold.

(Values after patent US20260275280A1, “DIRECTED DIFFERENTIATION PROTOCOLS TO DERIVE BONE FIDE SPINAL SENSORY INTERNEURONS” (THE REGENTS OF THE UNIVERSITY OF CALIFORNIA, priority 2022, published 2026).)
